This note sets out measurements from patent US20240228536A1, “PEPTIDES FOR USE IN SKIN AND HAIR PIGMENTATION” (Follicum AB, priority 2020, published 2024).

The test system of data set [1] is Pigmented skin equivalents (SEs), Melanoderms Mel-300-A (donor) and Mel-300-C-2 (donor). The experiment in a line: Skin equivalent culture, photographic assessment of pigmentation. Format: cell-based, human. The method, then:
The skin equivalent surface area was 63.6 mm^2. Other equipment used included SMZ1000 Stereo Microscope (Nikon); UC30 Microscope Camera (Olympus); Phosphate-Buffered Saline (PBS); 6-well Tissue Culture Plates (Sarstedt); Image J software (https://imagej.nih.gov); Paintshop Photo Pro Software (Corel). The Melanoderms were prepared by carefully removing the agarose with sterile forceps and placing them in pre-warmed culture medium (37° C.) for an hour prior to treatment. The Melanoderms were then topically treated (without rubbing) with 25 μl of the various peptides, dissolved in dH2O at 10 mg/ml. […] The SEs were examined and removed from culture when skin darkening became visible. The pigmentation of the Melanoderms was macroscopically assessed by capturing high-resolution images using the Olympus microscope camera. […] They were then placed into a 6-well plate containing 1 ml PBS/well and images captured at ×8 magnification. The images were then processed using Image J & Paintshop Photo Pro software, to determine a quantifiable pixel area, which equated to the level of pigmentation present in the skin equivalent. The image brightness was normalised and the image gray-scaled using Paintshop Photo Pro, then Image J was used to threshold the image. The pigmentation was quantified by assessing total pixel area of pigmentation coverage in a fixed sample area. An ANOVA test (Dunnett's post-test) was used for the statistical analysis. Three different experiments were conducted. In the first, skin equivalents from both donors were included, and in experiment 2 and 3, only the […] donor was included. The SE of the […] donor from the first experiment received 5 treatments of 25 μl of peptide solution at 10 mg/ml; starting on the first day following receipt then on days 3, 5, 9 and 12. Peptides 1 (SEQ ID NO: 2), 3 (SEQ ID NO: 3) and 4 (SEQ ID NO: 4) were tested. The images were taken on Day 14. In experiment 2, peptide 3 and 4 were selected for testing to see if it had any efficacy in reducing melanin content or the distribution of melanin throughout the SE. This time, 5 SEs were used per treatment to improve statistical robustness. The experiment was continued for 20 days with treatments on days 0, 3, 7 and 12 and medium changes every other day. In experiment 3 a more highly pigmented SE ([…] donor melanocytes) was used and with an increased sample size with n=7 per treatment. […] Treatment was repeated on days 5, 9, 12 and 15 with medium changed every other day.

The next data set relates to skin equivalents (SEs). The experiment in a line: H&E and Warthin Starry staining of skin equivalents. The conditions noted are these: day 20. Format: cell-based, human. The source says:
Two skin equivalents (SEs) were used from one donor.
The analysis was achieved using the Warthin Starry assay using our recently published method (Joly-Tonetti et al 2016) and hematoxylin&eosin (H&E) staining.
The SEs were stained with Warthin Starry stain to visualise and quantify the melanin in sections. The SEs were removed from culture on day 20 and washed in PBS. They were then flash frozen in liquid nitrogen and mounted in OCT for sectioning. 10 μm sections were cut using a cryostat, the sections collected on slides and fixed in Acetone for 10 mins. The OCT was removed from the section by washing in acidulated water for 20 mins. The slides were then incubated in 1% silver nitrate solution for 1 hour at 43° C. […] The slides were stained for 2 mins then the staining was stopped by running the slides under hot tap water. Slides were then mounted using Histomount. Brightfield images were captured using a Nikon Eclipse microscope. Image analysis of the melanin density in sections was performed using Image J and densitometric thresholding. Results are presented in pixel intensity units. For the hematoxylin&eosin (H&E) staining, the SEs were flash frozen, sectioned and fixed as above. The slides were then washed in dH2O to remove the OCT for 20 mins. Haematoxylin was filtered using filter paper into a Coplin jar. Further Coplin jars were also prepared containing the following: Tap Water, Scott's Tap Water, 0.25% Eosin, 50% Ethanol, 70% Ethanol, 90% Ethanol, Ethanol and Histoclear. The slides were then placed into Haematoxylin for 2 mins, and then placed into tap water for 30 secs, Scott's Tap Water for 1 min & Eosin for 2 mins. The slides were then dehydrated through the Ethanol (1 min each) then placed into Histoclear for 2 mins and mounted using Histomount. Brightfield images were captured using a Nikon Eclipse microscope.

In a further data set the test system is Tyrosinase (TYR). The experiment in a line: qPCR expression analysis of melanogenesis markers in Melanoderm SEs. Particulars: 0.4% in formulation B, day 7, compared to formulation B only (p=0.027, t-test). The format is cell-based, human. As to the method: (§1) RNA stabilized Melanoderm tissue from Example 13 was thawed on ice RNA extracted using the RNeasy extraction kit (Qiagen, UK) according to manufacturer's instructions.
(§2) To ensure efficient lysis, tissue was ground in lysis buffer in a RNase-free 1.5 ml centrifuge tube using a sterile microbiological colony picker then passed through a Qiashredder column (Qiagen, UK) before lysate was purified. To prevent carry over of gDNA to qPCR, on-column digestion using 80 μl of DNase enzyme was added (DNase on column digestion kit, Sigma, UK). RNA was eluted in a 50 μl volume of sterile elution buffer and stored at −80° C. until use. For cDNA reverse transcription 8 μl of RNA was added as template in a 20 μl final volume in a 96-well plate using the iScript Advanced cDNA Synthesis Kit for RT-qPCR (Bio-Rad, UK) according to manufacturer's instructions. Low profile 96-well PCR plates and seals for qPCR reactions were obtained from Thermofisher. For qPCR 1 μl of cDNA from each test sample and relevant controls were amplified in a 96-well plate using SsoAdvanced Universal SYBR® Green Supermix and target pigmentation specific gene primers (pigment cell-specific pre-melanosomal protein (PMEL), Tyrosinase-related protein-1 (TYRP-1) and Tyrosinase (TYR)) in a 20 μl final reaction volume. Prevalidated primers, templates and gDNA controls were sourced from Bio-Rad, UK. Prevalidated template cDNA was included as a positive control for each gene tested. Ribosomal protein-20 (RPS20) was used as a housekeeping gene control. Samples were amplified using an Applied Biosystems StepOne Plus qPCR machine and associated software. Differences in fold gene expression between treatments and untreated controls were calculated from RPS20 reference gene normalised Ct values using the ΔΔCt method (2-(ΔΔCt)). Final expression values were log 10 transformed prior to statistical analysis (unpaired t-test) using Prism software.
(In general: Quantitative PCR measures a nucleic acid by following its amplification.)

The next data set relates to TYRP-1. Described as above. Format: cell-based, human. Particulars: 0.4% in formulation B, day 7, against formulation B only (p=0.005, t-test). As to the method:
as §1, §2

Another data set has as its system PMEL. The description is as above. Particulars: 0.4% in formulation B, day 7, against formulation B treatment only (p=0.015, t-test). The format is cell-based, human. The method, then: as §1, §2
Data set [2] can be described thus: Stability study of compositions comprising peptides 1 and 4 (HPLC purity). The format is physicochemical. The conditions noted are these: water-free formulations A, B and C, 20° C., 12 weeks. As to the method: Samples of the separate formulations were stored at 20° C. […] Analysis of peptide purity in ointment and PBS solutions was performed using standard HPLC-UV-DA methods when the samples were freshly prepared (time 0) and after 1, 2, 6, 8 and 12 weeks.

The mark [3] stands for this setting: experiment 1, donor, 10 mg/ml, 20 days in culture.
The mark [4] stands for this setting: experiment 1, donor, 5 topical treatments of 25 μl at 10 mg/ml in dH2O, images Day 14.
Where [5] appears, read: experiment 3, more highly pigmented SE (donor), 10 mg/ml, n=7.

Turning to “Asn-Ala-Ala-Met (NAAM; (1)..(4) Peptide 4)”, the “pigmentation of skin equivalents (photographic assessment) compared to vehicle control” value is “somewhat darker and mottled appearance” in data set [1] (setting [3]); “more pigmented compared to the vehicle” in data set [1] (setting [4]); “increase in pigmentation compared to the vehicle control samples” in data set [1] (experiment 2, donor, 10 mg/ml, 20 days, n=5); “increase in pigmentation” in data set [1] (setting [5]). Further, the “melanin content and distribution in SE sections (Warthin Starry)” value with skin equivalents (SEs) (one of the donors (FIG. 3A)) is on record as “increased the melanin content in the SEs across all layers”; in the data set with skin equivalents (SEs) (second donor (FIG. 3B-D)), “visibly increased melanin content”. In the data set with Tyrosinase (TYR), the “relative expression of Tyrosinase (TYR) (qPCR)” value is listed as “significant increase in expression”. Also, in the data set on TYRP-1, the “relative expression of TYRP-1 (qPCR)” value is given as “moderately significant increase in expression”. For the same substance, the “relative expression of PMEL (qPCR)” value in the data set with PMEL is “greatest increase in expression which was significant”.

Take “Asn-Ala-His-Met (NAHM; (1)..(4) Peptide 1)”: the “pigmentation of skin equivalents (photographic assessment) compared to vehicle control” value is “somewhat darker and mottled appearance” in data set [1] (setting [3]); “more pigmented compared to the vehicle” in data set [1] (setting [4]); “increase in pigmentation” in data set [1] (setting [5]). Besides, in data set [2], the “stability (peptide purity by HPLC)” value is on record as “stable”. For the same substance, the “melanin content and distribution in SE sections (Warthin Starry)” value in the data set on skin equivalents (SEs) (second donor (FIG. 3B-D)) is given as “visibly increased melanin content”.
